This is an account of results in patent publication US20100040617A1, “Method of Using CD100 (or Sema4D) to Mediate Platelet Activation and Inflammatory Responses” (Trustees of the University of Pennsylvania, priority 2004, published 2010).

The subject of one experiment is human platelets. The experiment is described as follows: ADP-induced platelet aggregation. Type of experiment: cell-based. As for the experimental part:
FIG. 9A represents human platelets that were stimulated with a low concentration of ADP±soluble a soluble chimera of the extracellular domain of sema4D/CD100 fused to IgGκ Fc. FIG. 9B represents an immunoblot of FcCD100 that was performed under reducing and non-reducing conditions using anti-Fc.
Soluble sema4D/CD100 caused an increase in ADP-induced aggregation (FIG. 9). In this experiment, soluble sema4D/CD100 was added as a fusion protein (referred to as FcSema4D or FcCD100) in which the entire extracellular domain of sema4D/CD100 was fused to an IgG Fc domain. The protein forms a disulfide-linked homodimer capable of activating sema4D/CD100 receptors (Ishida, I., et al., Int Immunol, 2003. 15(8): p. 1027-34). FcCD100 had no effect when added on its own (not shown). […] Therefore, it appears that stimulating a receptor for sema4D/CD100 on platelets potentiates platelet responses to ADP. Additional platelet agonists (especially collagen) are going to be explored using platelet accumulation on collagen under flow as an additional endpoint.

The next experiment concerns the target T1, recombinant ADAM17 (Homo sapiens, UniProt P78536).
T1 construct: incubated with recombinant ADAM17 lacking the pro domain
Put plainly: Cleavage of Fc-sema4D by recombinant ADAM17. Type of experiment: biochemical. As to conditions: recombinant ADAM17 lacking the pro domain (FIG. 11). As for the experimental part: FIG. 11 represents the cleavage of sema4D by ADAM17. Recombinant ADAM17 was incubated with Fc-sema4D in which the extracellular domain of human sema4D was joined via a linker to the N-terminus of IgG1 Fc. Two fragments were detected by amido black protein staining (left), the smaller of which (fragment #1) was also detectable with anti-Fc, as was the intact protein (middle). The N-terminal sequence of fragment #1 was determined.
The cleavage site within platelet sema4D/CD100 was determined by using the C-terminal sema4D/CD100 antibody to immunoprecipitate the 25-30 kDa fragment that includes the transmembrane domain and any remaining extracellular domain. […]
In an effort to determine whether sema4D is a direct substrate for ADAM17, a chimeric protein comprised of the extracellular domain of human sema4D fused to the N-terminus of an IgG Fc domain fragment (Ishida et al. 2003. Int Immunol 15:1027-1034) was incubated with recombinant ADAM17 lacking the pro domain (Milla et al. 1999. J Biol Chem 274:30563-30570). […] It has been determined that in platelets, as in lymphocytes, the extracellular domain of sema4D/CD100 is shed as a disulfide-linked dimer.

The test system of experiment [1] is sema4D/CD100. The experiment is described as follows: sema4D/CD100 cleavage in activated platelets (immunoblot with Abm30). It counts as cell-based, human. The conditions noted are these: for cleavage of sema4D/CD100: platelets stimulated with 100 nM PMA at 37° C. for 30 min, 20 μM TAPI-2 preincubated for 60 min (FIG. 4A), EDTA not shown. An excerpt: (§1) FIG. 4 represents the effect of metalloprotease inhibitors on sema4D expression. […] Sema4D was precipitated and blotted with Abm30. Ig light and heavy chains are indicated.
(§2) The observation that sema4D/CD100 cleavage occurs in washed platelets implies that the protease involved is intrinsic to the platelets and not a plasma protein. Platelets are known to contain a number of metalloproteases, including members of the MMP and ADAM families (Sheu, J. R., et al., Br J Pharmacol, 2004. 143(1): p. 193-201. Sawicki, G., et al., Nature, 1997. 386: p. 616-619. Sawicki, G., et al., Thromb. Haemost., 1998. 80: p. 836-839. Colciaghi, F., et al., Mol Med, 2002. 8(2): p. 67-74.).
A general note: Immunoblotting shows a protein as a band on a membrane.

In experiment [2] the test system is sema4D/CD100. The experiment is described as follows: sema4D/CD100 surface expression on platelets by FACS. It counts as cell-based, human. As to conditions: platelets stimulated with PMA for 15 min or 60 min, FACS (FIG. 4B). The protocol:
as §1
Surface expression of sema4D/CD100 was detected by FACS using an antibody that recognizes the extracellular domain. Expression increased when the platelets were activated with PMA for 15 minutes (FIG. 1C). In contrast, the α-granule membrane protein, P-selectin, was detected only on activated platelets.
as §2
In general terms: A flow cytometer gives signals particle by particle.

The subject of a further experiment is Akt. Put plainly: Akt phosphorylation (pAkt473 immunoblot) in human platelets. It counts as cell-based. The conditions noted are these: immunoblot for pAkt473, absent in resting platelets (FIG. 7). The protocol: FIG. 7 represents an immunoblot for pAkt473 from human platelets that were stimulated with recombinant sema4D or thrombin.
Activation of the PI 3-kinase pathway was measured using phosphorylation of Akt as a surrogate. Akt phosphorylation normally occurs in platelets activated by collagen and other agonists. Akt phosphorylation was also recently shown to occur in endothelial cells stimulated with soluble sema4D/CD100 (Basile, et al. Mol Cell Biol. […]: 6889, 2005). In endothelial cells responses to sema4D/CD100 appear to be mediated by plexin-B1. In FIG. 7, human platelets were stimulated with a His-tagged protein corresponding to the human sema4D/CD100 exodomain. Platelet lysates were prepared and immunoblotted with an antibody specific for pAkt473. Thrombin was used as a positive control.

Experiment [3] deals with sema4D/CD100. Put plainly: Rate of sema4D/CD100 cleavage in stirred, PMA-activated platelets. Type of experiment: cell-based, human. The conditions noted are these: fibrinogen binding and aggregation inhibited by the peptide (not shown). The protocol:
Washed platelets were stimulated with 100 nM PMA in an aggregometer cuvette at 37° C. with or without stirring. Lysates were precipitated and blotted with antibody Abm30. The extent of platelet aggregation in the stirred samples is indicated below each lane.
To address the issue of whether the rate of sema4D/CD100 cleavage is different when aggregation is allowed to occur than when activation occurs in the absence of aggregation, platelets were activated with or without the stirring needed for platelet aggregates to form. PMA caused a time-dependent loss of intact sema4D/CD100 and the appearance of the C-terminal sema4D/CD100 fragment. The rate of cleavage was accelerated when aggregation was allowed to occur (FIG. 3). Even at its fastest, however, cleavage lagged behind aggregation.
Platelet aggregation study also included the use of washed platelets were stimulated with 100 nM PMA in an aggregometer cuvette at 37° C. with or without stirring. Lysates were precipitated and blotted with antibody Abm30.

In another experiment the test system is monocytes. As to conditions: cited from earlier work.

T1 sequence (P78536 215-824): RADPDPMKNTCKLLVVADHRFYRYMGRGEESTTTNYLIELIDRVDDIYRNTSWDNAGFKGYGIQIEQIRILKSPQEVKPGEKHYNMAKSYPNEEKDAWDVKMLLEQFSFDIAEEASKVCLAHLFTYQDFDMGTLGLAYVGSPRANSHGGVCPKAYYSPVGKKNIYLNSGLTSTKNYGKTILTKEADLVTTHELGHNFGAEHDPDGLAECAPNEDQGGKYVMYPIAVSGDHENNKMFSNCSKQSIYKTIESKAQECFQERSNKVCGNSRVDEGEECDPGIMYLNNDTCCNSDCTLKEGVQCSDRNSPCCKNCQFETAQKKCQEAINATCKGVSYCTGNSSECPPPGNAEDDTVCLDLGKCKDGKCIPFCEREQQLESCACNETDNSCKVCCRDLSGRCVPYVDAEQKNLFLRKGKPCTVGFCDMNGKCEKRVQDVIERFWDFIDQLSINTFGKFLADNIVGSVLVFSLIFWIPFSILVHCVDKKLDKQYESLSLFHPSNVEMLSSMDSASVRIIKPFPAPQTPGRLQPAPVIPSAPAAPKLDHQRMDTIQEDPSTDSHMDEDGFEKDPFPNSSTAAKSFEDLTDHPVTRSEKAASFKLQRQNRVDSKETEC

Regarding “FcCD100: fusion protein in which the entire extracellular domain of sema4D/CD100 was fused to an IgG Fc domain; disulfide-linked homodimer”, in the experiment with human platelets (low concentration of ADP (FIG. 9)), the “platelet aggregation in the presence of ADP” value is reported as “caused an increase in platelet aggregation”. For the same molecule, in the experiment with human platelets (no ADP (not shown)), the “platelet aggregation, added on its own” value was “no effect”. Further, the “cleavage by recombinant ADAM17” value with recombinant ADAM17 is given as “Cleavage produced two identifiable fragments”. In the case of `CNC(=O)[C@H](Cc1c[nH]c2ccccc12)NC(=O)[C@@H](CC(=O)NO)CC(C)C` [GM6001], the “cleavage of sema4D/CD100” value in the experiment on sema4D/CD100 [1] is recorded as “inhibited”. As for `CC(C)C[C@H](CC(=O)NO)C(=O)N[C@H](C(=O)N[C@@H](C)C(=O)NCCN)C(C)(C)C` [TAPI-2], in the experiment with sema4D/CD100 [1] (platelets activated by thrombin or SFLLRN (not shown)), the sema4D/CD100 cleavage result was “abolished”. In addition, in the experiment with sema4D/CD100 [1], the “cleavage of sema4D/CD100” value is “inhibited”. Also, the “loss of sema4D/CD100 surface expression” value in the experiment on sema4D/CD100 [2] was “prevented the loss of surface expression”. Take `O=C(O)CN(CCN(CC(=O)O)CC(=O)O)CC(=O)O` [EDTA]: the “cleavage of sema4D/CD100” value with sema4D/CD100 [1] is recorded as “inhibited”. As to thrombin, the “pAkt in platelet lysates” value with Akt was “readily detectable”. Take RGDS: the “rate of sema4D/CD100 cleavage” value with sema4D/CD100 [3] is listed as “the rate of cleavage became more like that seen when the platelets were activated without stirring”. With “soluble sema4D/CD100: in FIG. 7 a His-tagged protein corresponding to the human sema4D/CD100 exodomain”, the “pAkt in platelet lysates” value with Akt is “readily detectable”. Further, in the experiment with monocytes, the “half-maximal effects on monocytes” value is 5 to 10 ng/mL and the “maximal effects on monocytes” value was 40 to 50 ng/mL.
